Test results: ChEMBL document CHEMBL4364276, “Discovery of 4-phenyl-2H-benzo[b][1,4]oxazin-3(4H)-one derivatives as potent and orally active PI3K/mTOR dual inhibitors” (Eur J Med Chem, 2019)

Key:
[1] = biological target: Receptor-type tyrosine-protein kinase FLT3 (Homo sapiens) (UniProt P36888); assay: Inhibition of human FLT3 at 100 nM using EAIYAAPFAKKK as substrate by [gamma-33P]-ATP assay
[2] = biological target: Dual specificity tyrosine-phosphorylation-regulated kinase 1A (Homo sapiens) (UniProt Q13627); assay: Inhibition of human DYRK1A at 100 nM using RRRFRPASPLRGPPK as substrate by [gamma-33P]-ATP assay
[3] = Clearance in Sprague-Dawley rat at 1 mg/kg, iv measured upto 24 hrs by LC-MS/MS analysis; type: ADME, organism-based; details: in vivo
[4] = biological target: Myosin-IIIa (Homo sapiens) (UniProt Q8NEV4); assay: Inhibition of human MYO3A at 100 nM using MBP as substrate by [gamma-33P]-ATP assay
Sequence of Myosin-IIIa (Homo sapiens) (Q8NEV4 whole entry): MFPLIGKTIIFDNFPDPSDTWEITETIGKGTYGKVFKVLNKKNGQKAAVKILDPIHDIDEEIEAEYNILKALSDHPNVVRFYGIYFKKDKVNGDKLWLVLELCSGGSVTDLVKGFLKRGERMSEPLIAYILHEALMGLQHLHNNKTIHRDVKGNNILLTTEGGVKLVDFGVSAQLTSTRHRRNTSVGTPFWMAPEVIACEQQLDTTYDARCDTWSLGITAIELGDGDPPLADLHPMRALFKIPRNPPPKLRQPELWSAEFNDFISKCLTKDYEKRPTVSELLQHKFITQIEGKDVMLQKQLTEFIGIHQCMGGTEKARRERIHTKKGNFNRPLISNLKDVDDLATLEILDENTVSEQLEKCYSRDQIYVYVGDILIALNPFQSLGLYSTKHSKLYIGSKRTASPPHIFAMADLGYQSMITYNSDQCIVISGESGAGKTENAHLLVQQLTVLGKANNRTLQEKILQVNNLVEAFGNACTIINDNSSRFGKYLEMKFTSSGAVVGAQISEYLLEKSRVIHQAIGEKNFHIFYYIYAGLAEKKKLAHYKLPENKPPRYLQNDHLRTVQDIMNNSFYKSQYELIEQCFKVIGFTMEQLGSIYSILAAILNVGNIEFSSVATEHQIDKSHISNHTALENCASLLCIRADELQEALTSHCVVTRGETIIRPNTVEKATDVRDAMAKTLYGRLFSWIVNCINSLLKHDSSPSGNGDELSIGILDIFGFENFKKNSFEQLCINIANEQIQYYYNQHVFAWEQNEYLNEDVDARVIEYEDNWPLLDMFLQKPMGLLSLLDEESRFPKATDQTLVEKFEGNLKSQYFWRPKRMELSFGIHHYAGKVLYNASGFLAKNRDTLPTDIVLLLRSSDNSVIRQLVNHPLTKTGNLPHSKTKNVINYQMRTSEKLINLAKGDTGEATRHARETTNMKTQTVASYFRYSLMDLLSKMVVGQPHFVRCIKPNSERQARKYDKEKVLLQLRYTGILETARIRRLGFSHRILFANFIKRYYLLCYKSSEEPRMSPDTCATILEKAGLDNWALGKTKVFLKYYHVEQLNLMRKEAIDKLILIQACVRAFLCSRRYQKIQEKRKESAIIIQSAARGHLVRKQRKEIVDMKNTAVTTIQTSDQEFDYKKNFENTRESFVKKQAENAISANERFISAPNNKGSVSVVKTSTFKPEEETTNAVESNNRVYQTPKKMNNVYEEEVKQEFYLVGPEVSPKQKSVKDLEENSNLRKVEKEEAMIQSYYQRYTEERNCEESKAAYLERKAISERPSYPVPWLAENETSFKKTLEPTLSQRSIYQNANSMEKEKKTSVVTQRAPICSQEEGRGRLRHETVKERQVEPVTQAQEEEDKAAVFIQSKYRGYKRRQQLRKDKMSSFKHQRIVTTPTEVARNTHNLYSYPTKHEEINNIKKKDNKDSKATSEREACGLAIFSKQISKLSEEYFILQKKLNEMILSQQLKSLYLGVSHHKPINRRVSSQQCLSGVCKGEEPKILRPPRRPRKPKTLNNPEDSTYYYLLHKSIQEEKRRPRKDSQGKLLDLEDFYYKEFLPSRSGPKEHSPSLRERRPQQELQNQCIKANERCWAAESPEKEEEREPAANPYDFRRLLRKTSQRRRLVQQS

[5] = biological target: Calcium/calmodulin-dependent protein kinase type IV (Homo sapiens) (UniProt Q16566); assay: Inhibition of human CAMK4 at 100 nM using KKLNRTLSFAEPG as substrate by [gamma-33P]-ATP assay
[6] = biological target: Vascular endothelial growth factor receptor 3 (Homo sapiens) (UniProt P35916); assay: Inhibition of human FLT4 at 100 nM using poly[Glu:Tyr] (4:1) as substrate by [gamma-33P]-ATP assay
[7] = biological target: Cyclin-dependent kinase 5/CDK5 activator 1 (Homo sapiens) (UniProt Q00535+Q15078); assay: Inhibition of human CDK5/p25 at 100 nM using histone H1 as substrate by [gamma-33P]-ATP assay; type: protein-complex assay
[8] = biological target: Casein kinase I isoform alpha (Homo sapiens) (UniProt P48729); assay: Inhibition of human CK1a1 at 100 nM using KRRRAL[pS]VASLPGL as substrate by [gamma-33P]-ATP assay
[9] = biological target: RAF proto-oncogene serine/threonine-protein kinase (Homo sapiens) (UniProt P04049); assay: Inhibition of human RAF1 at 100 nM using MEK1 as substrate by [gamma-33P]-ATP assay
[10] = biological target: LIM domain kinase 1 (Homo sapiens) (UniProt P53667); assay: Inhibition of human LIMK1 at 100 nM using cofilin as substrate by [gamma-33P]-ATP assay
A549 = assay: Antitumor activity against human A549 cells xenografted in BALB/c nude mouse assessed as tumor growth inhibition at 40 mg/kg, ig administered for 30 days measured every 3 days during compound dosing relative to control; type: functional; details: A549, po, read-out: TGI
[11] = biological target: LIM domain kinase 2 (Homo sapiens) (UniProt P53671); assay: Inhibition of human LIMK2 at 100 nM using cofilin as substrate by [gamma-33P]-ATP assay
[12] = biological target: Activin receptor type-1 (Homo sapiens) (UniProt Q04771); assay: Inhibition of human ALK2 at 100 nM using casein as substrate by [gamma-33P]-ATP assay
[13] = biological target: Serine/threonine-protein kinase ICK (Homo sapiens) (UniProt Q9UPZ9); assay: Inhibition of human LCK2 at 100 nM using MBP as substrate by [gamma-33P]-ATP assay
[14] = biological target: Dual specificity protein kinase CLK1 (Homo sapiens) (UniProt P49759); assay: Inhibition of human CLK1 at 100 nM using MBP as substrate by [gamma-33P]-ATP assay
[15] = biological target: Serine/threonine-protein kinase VRK2 (Homo sapiens) (UniProt Q86Y07); assay: Inhibition of human VRK2 at 100 nM using casein as substrate by [gamma-33P]-ATP assay
Sequence of Serine/threonine-protein kinase VRK2 (Homo sapiens) (Q86Y07 whole entry): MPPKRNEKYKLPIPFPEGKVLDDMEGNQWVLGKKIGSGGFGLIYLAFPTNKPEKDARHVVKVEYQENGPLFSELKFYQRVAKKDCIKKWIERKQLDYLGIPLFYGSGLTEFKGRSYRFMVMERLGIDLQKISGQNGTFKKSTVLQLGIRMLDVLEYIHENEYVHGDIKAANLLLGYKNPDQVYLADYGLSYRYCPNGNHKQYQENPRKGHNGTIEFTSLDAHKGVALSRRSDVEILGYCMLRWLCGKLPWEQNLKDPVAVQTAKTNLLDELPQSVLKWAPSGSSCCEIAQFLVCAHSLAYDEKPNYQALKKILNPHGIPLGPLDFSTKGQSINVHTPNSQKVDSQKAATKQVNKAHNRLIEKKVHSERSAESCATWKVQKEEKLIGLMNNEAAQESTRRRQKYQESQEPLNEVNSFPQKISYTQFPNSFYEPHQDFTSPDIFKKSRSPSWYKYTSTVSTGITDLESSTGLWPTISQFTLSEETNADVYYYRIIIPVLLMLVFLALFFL

Homo sapiens = species: Homo sapiens; assay: Inhibition of human AMPK (A2/B1/G1) at 100 nM using HMRSAMSGLHLVKRR as substrate by [gamma-33P]-ATP assay
[16] = biological target: cGMP-dependent protein kinase 1 (Homo sapiens) (UniProt Q13976); assay: Inhibition of human PKG1beta at 100 nM using LRRASLG as substrate by [gamma-33P]-ATP assay
[17] = biological target: Serine/threonine-protein kinase BRSK1 (Homo sapiens) (UniProt Q8TDC3); assay: Inhibition of human BRSK1 at 100 nM using KKKVSRSGLYRSPSMPENLNRPR as substrate by [gamma-33P]-ATP assay
[18] = biological target: Fibroblast growth factor receptor 3 (Homo sapiens) (UniProt P22607); assay: Inhibition of human FGFR3 at 100 nM using poly[Glu:Tyr] (4:1) as substrate by [gamma-33P]-ATP assay
Sequence of Fibroblast growth factor receptor 3 (Homo sapiens) (P22607 23-806 limits assumed): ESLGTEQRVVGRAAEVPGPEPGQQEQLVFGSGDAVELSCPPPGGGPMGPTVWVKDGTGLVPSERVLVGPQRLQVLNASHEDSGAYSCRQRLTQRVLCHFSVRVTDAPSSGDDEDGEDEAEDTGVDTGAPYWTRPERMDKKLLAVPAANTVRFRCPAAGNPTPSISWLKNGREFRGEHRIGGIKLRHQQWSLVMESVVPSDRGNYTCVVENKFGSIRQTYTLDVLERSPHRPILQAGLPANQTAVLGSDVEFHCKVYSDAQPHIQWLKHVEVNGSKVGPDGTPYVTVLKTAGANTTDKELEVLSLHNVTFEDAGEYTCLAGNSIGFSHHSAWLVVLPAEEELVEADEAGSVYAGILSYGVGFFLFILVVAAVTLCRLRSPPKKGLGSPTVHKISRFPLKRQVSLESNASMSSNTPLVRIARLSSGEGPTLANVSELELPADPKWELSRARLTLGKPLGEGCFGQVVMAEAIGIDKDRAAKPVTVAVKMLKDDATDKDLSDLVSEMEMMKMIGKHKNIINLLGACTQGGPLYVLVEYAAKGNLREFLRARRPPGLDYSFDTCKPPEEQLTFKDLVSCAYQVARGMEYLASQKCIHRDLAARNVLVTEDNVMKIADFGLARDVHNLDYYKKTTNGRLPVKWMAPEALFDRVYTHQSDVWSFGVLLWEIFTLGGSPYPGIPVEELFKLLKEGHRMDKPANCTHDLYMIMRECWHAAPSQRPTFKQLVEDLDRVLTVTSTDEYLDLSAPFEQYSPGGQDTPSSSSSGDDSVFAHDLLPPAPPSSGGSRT

[19] = biological target: Ephrin type-A receptor 5 (Homo sapiens) (UniProt P54756); assay: Inhibition of human EPHA5 at 100 nM using poly[Glu:Tyr] (4:1) as substrate by [gamma-33P]-ATP assay
[20] = biological target: Serine/threonine-protein kinase Chk1 (Homo sapiens) (UniProt O14757); assay: Inhibition of human CHK1 at 100 nM using KKKVSRSGLYRSPSMPENLNRPR as substrate by [gamma-33P]-ATP assay
[21] = biological target: CDK8/Cyclin C (Homo sapiens) (UniProt P49336+P24863); assay: Inhibition of human CDK8/cyclin-C at 100 nM using KKKVSRSGLYRSPSMPENLNRPR as substrate by [gamma-33P]-ATP assay; type: protein-complex assay
[22] = biological target: Serine/threonine-protein kinase N2 (Homo sapiens) (UniProt Q16513); assay: Inhibition of human PKN2 at 100 nM using KKLNRTLSVA as substrate by [gamma-33P]-ATP assay
[23] = biological target: Tyrosine-protein kinase Mer (Homo sapiens) (UniProt Q12866); assay: Inhibition of human c-MER at 100 nM using poly[Glu:Tyr] (4:1) as substrate by [gamma-33P]-ATP assay
Sequence of Tyrosine-protein kinase Mer (Homo sapiens) (Q12866 whole entry): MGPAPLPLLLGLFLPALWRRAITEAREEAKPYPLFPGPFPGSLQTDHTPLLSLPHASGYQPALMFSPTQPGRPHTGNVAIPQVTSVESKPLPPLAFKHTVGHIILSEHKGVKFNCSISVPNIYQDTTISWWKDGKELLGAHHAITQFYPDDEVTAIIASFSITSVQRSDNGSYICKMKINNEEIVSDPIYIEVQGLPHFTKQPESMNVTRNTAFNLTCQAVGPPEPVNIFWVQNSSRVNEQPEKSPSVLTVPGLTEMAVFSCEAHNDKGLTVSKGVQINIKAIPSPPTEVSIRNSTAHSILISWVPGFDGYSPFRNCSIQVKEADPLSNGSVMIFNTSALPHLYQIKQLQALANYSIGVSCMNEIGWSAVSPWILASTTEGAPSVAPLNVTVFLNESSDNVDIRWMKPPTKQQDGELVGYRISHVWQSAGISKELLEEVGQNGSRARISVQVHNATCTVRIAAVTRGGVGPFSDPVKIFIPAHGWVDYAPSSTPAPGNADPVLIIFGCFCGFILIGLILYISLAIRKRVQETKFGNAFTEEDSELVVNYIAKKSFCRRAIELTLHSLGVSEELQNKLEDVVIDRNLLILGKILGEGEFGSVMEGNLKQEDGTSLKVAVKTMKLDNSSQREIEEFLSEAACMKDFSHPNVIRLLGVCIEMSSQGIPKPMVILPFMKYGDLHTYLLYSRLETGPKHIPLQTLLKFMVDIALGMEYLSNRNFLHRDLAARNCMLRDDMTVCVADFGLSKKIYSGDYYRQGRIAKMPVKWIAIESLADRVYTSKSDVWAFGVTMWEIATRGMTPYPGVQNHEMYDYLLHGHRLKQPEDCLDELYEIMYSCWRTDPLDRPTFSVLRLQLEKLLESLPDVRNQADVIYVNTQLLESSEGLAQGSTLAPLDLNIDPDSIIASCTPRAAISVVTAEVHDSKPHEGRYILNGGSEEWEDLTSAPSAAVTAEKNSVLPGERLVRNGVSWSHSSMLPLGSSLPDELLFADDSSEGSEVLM

[24] = biological target: Tyrosine-protein kinase ITK/TSK (Homo sapiens) (UniProt Q08881); assay: Inhibition of human ITK at 100 nM using MBP as substrate by [gamma-33P]-ATP assay
[25] = biological target: Tyrosine-protein kinase ZAP-70 (Homo sapiens) (UniProt P43403); assay: Inhibition of human ZAP70 at 100 nM using poly[Glu:Tyr] (4:1) as substrate by [gamma-33P]-ATP assay
[26] = biological target: Ephrin type-B receptor 4 (Homo sapiens) (UniProt P54760); assay: Inhibition of human EPHB4 at 100 nM using poly[Glu:Tyr] (4:1) as substrate by [gamma-33P]-ATP assay
Sequence of Ephrin type-B receptor 4 (Homo sapiens) (P54760 whole entry): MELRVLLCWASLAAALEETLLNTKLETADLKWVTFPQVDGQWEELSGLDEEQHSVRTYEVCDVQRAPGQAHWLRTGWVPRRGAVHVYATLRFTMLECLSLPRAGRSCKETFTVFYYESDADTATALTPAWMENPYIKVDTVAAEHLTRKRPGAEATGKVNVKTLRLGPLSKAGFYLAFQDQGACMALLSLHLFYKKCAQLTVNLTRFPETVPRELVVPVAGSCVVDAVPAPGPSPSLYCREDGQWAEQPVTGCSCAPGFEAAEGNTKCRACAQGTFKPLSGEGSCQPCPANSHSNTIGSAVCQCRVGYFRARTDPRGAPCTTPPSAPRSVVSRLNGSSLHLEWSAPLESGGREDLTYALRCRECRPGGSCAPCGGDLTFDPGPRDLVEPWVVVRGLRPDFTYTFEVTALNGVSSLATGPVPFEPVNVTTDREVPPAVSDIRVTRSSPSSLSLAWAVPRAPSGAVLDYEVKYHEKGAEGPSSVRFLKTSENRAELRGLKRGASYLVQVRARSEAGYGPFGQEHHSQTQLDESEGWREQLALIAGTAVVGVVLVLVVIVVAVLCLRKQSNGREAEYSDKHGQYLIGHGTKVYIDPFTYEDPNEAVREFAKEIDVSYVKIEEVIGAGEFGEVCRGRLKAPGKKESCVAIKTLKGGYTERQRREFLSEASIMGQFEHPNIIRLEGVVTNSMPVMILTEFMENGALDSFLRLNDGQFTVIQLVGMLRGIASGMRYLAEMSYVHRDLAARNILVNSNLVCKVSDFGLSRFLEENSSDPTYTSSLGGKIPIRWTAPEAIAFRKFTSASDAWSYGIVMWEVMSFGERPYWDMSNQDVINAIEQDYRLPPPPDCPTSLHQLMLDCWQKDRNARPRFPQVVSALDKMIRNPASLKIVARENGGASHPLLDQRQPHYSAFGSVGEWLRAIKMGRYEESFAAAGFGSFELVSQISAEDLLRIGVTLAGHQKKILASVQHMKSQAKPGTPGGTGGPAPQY

[27] = biological target: STE20/SPS1-related proline-alanine-rich protein kinase (Homo sapiens) (UniProt Q9UEW8); assay: Inhibition of human STK39 at 100 nM using MBP as substrate by [gamma-33P]-ATP assay
[28] = biological target: Phosphorylase b kinase gamma catalytic chain, skeletal muscle/heart isoform (Homo sapiens) (UniProt Q16816); assay: Inhibition of human PHKgamma1 at 100 nM using MBP as substrate by [gamma-33P]-ATP assay
[29] = Half life in Sprague-Dawley rat at 10 mg/kg, po measured upto 24 hrs by LC-MS/MS analysis; type: ADME, organism-based; details: in vivo

COc1ccc(N2C(=O)COc3ccc(-c4cnc(OC)c(NS(=O)(=O)c5ccc(F)cc5)c4)cc32)cc1
inhibition [1]: 16.6% | inhibition [2]: 5.57% | clearance [3]: 8.56 mL/min/kg | inhibition [4]: 2.8% | inhibition [5]: 12% | inhibition [6]: -7.65% | inhibition [7]: 9.26% | inhibition [8]: 16.6% | inhibition [9]: -0.03% | inhibition [10]: -3.87% | inhibition in vivo at 40 mg/kg (A549): 70.2% | inhibition [11]: 2.98% | inhibition [12]: 12.7% | inhibition [13]: 7.92% | inhibition [14]: 7.77% | inhibition [15]: 7% | inhibition (Homo sapiens): -3.88% | inhibition [16]: -9.98% | inhibition [17]: 12.8% | inhibition [18]: -7.49% | inhibition [19]: 3.06% | inhibition [20]: 5.54% | inhibition [21]: 2.74% | inhibition [22]: 6.6% | inhibition [23]: 5.47% | inhibition [24]: -1.21% | inhibition [25]: -9.69% | inhibition [26]: 15.9% | inhibition [27]: 10% | inhibition [28]: 12.3% | half-life [29]: 1.78 h
